# Measured values: patent publication US9713613B2, “Methods and compositions for the treatment of cancer and related hyperproliferative disorders” (priority 2007, dated 2017)
# Key:
# [1] = system: endogenous SREBPs; experiment: Luciferase reporter assay (pSRE-Luc, normalized by β-gal) in HEK293 cells; assay type: cell-based, human; parameters: Luc/Gal: dose or concentration left out as unconfirmed; settings: entries 1-18 (FIG. 15); none = 9.4426
# Protocol: On day 0, HEK293 cells were plated out in triplicate at a density of 5×10^3/well onto a 96-well plate in a Dulbecco's modified Eagle's medium with 10% fetal bovine serum, 100 units/mL penicillin, and 100 μg/mL streptomycin sulfate. On day 2, the cells were transiently co-transfected with the following plasmids by using Lipofectamine reagent (Invitrogen): 0.4 μg/well pSRE-Luc (an SRE-1-driven luciferase reporter construct; Hua et al., 1995 J Biol Chem 270, 29422-7), and 0.1 μg/well a b-gal reporter in which the expression of β-gal is controlled by an actin promoter in a final volume of […]. After incubation for 5 hrs at 37° C., the cells were washed with phosphate-buffered saline and then incubated in 100 μl of Dulbecco's modified Eagle's medium with 10% lipid-depleted serum, […] penicillin, and 100 μg/mL streptomycin sulfate in the absence or presence of fatostatin A. After 20 hrs of incubation, the cells in each well were lysed with 20 μL of 1× Reporter Lysis Buffer (Promega), and aliquots were used for measurement of luciferase (10 μL) and β-galactosidase (10 μL) activities. For luciferase assay, photon production was detected as counts per second in a Wallac 1420 ARVOsx multilabel counter (PerkinElmer). For β-galactosidase assays, hydrolysis of O-nitrophenyl-β-D-galactosidase was measured after incubation for 0.5 h at 37° C. by a microplate reader at the wave length of 405 nm (Tecan). The luciferase activity (counts per second) was normalized by the activity of β-galactosidase (OD units). For overexpression of the N-terminal matured form of SREBP-1c, pCMV-SREBP-1c (1-436) was co-transfected with pSRE-Luc. pSRE-Luc and pCMV-SREBP-1c (1-436) were provided by J. L. Goldstein (University of Texas Southwestern Medical Center). […]
# [2] = system: 3T3-L1 cells; experiment: adipogenesis assay (formation of oil droplets); assay type: cell-based, mouse; parameters: key: +: The analogues that completely inhibited the formation of oil droplets in cells were scored to be adipogenesis-inhibiting analogues; settings: formation of oil droplets in cells
# Protocol: The adipogenesis assay was performed as described (Choi et al., 2003).
# [3] = system: MOLT-4 cells; experiment: MOLT-4 cell growth, MTT assay; assay type: cell-based, human; settings: 48 hours
# Protocol: 10,000 MOLT-4 cells (FIGS. 35A-35C) and 20,000 RPM18226 cells (FIGS. 35D-35F) were seeded onto 96 well plate in RPMI 1640 medium containing 5% FBS or fat-free charcoal treated serum (FF-FBS) for 24 hours at 37 C. MOLT-4 and RPM18226 cells were treated for additional 48 hours with different concentrations of compound 19 (None control without DMSO, Vehicle with DMSO, 1, 2, 5, 10 and 20 μM in DMSO; RPM18226 cells also were treated with 3 μM in DMSO). At the end of 48 hours cells were subjected to MTT assay to determine viability. Values are depicted as means±SD; *P<0.05.
# 20,000 MOLT-4 cells (FIGS. 36A-36C) and 20,000 RPM18226 cells (FIGS. 36D-36F) cells were seeded onto 96 well plates in RPMI 1640 Medium containing 5% Fetal bovine serum (FBS) or 5% fat free charcoal treated serum (FF-FBS) for 24 hours at 37 C. Cells then were treated for additional 48 hours with different concentrations of compound 17 (None control without DMSO, Vehicle with DMSO, 1, 2, 3, 5, 10 and 20 μM in DMSO). At the end of the 48 hours treatment cells were subjected to MTT assay to determine viability. Values are depicted as means±SD (n=3); **P<0.001; ***P<0.0001.
# MOLT-4 cells were grown at two different conditions under 5% fetal bovine serum (FBS) and under 5% FBS fat free serum (charcoal treated serum). 10,000 Cells were seeded a 96 well plate for 24 hours before starting the treatment with different concentrations of compound 19. Compound 19 dissolved in DMSO was added to cells for 48 hours before determining cell growth using MTT assay. […] Compound 19 inhibited cell growth about 75-80% at 10 and 20 μM under both growth conditions.
# MOLT-4 cells were grown at two different conditions under 5% fetal bovine serum (FBS) and under 5% FBS fat free serum (charcoal treated serum). 20,000 cells were seeded into a 96 well plate for 24 hours before starting the treatment with different concentrations of compound 17. Compound 17 dissolved in DMSO was added to cells for 48 hours before determining cell growth using MTT assay. […] Compound 17 inhibited cell growth about 85-100% at 5, 10 and 20 μM under both growth conditions. Under both 5% FBS and 5% FBS fat free sera there was a strong trend of inhibition starting at 1 μM (FIGS. 36B-36C).
# [4] = system: endogenous SREBPs; experiment: SREBP activation assay (pSRE-Luc luciferase reporter) in CHO-K1 cells; assay type: cell-based, Chinese hamster; settings: Cricetulus griseus, CHO-K1; 5 μM in CHOK1 cells
# Protocol: To confirm that fatostatin impairs the function of SREBPs, the ability of endogenous SREBPs to activate transcription of an SREBP-responsive reporter gene was measured in CHO-K1 cells in the presence or absence of fatostatin (FIG. 18A).
# Luciferase reporter assay. On day 0, CHO-K1 cells were plated out onto a 96-well plate in medium A (a 1:1 mixture of Ham's F-12 medium and Dulbecco's modified Eagle's medium, with 5% fetal bovine serum, 100 units/mL penicillin, and 100 μg/mL streptomycin sulfate). On day 2, the cells were transiently co-transfected with pSRE-Luc (an SRE-1-driven luciferase reporter construct) (Hua et al., 1995) and pAc-β-gal (β-gal reporter in which the expression of β-gal is controlled by an actin promoter), using Lipofectamine reagent (Invitrogen). After incubation for 5 h, the cells were washed with phosphate-buffered saline (PBS), and then incubated, in the absence or presence of fatostatin, in medium B (a 1:1 mixture of Ham's F-12 medium and Dulbecco's modified Eagle's medium, with 5% lipid-depleted serum, 100 units/mL penicillin, 100 μg/mL streptomycin sulfate, […], and 50 mM sodium mevalonate). After 20 h of incubation, the cells in each well were lysed, and aliquots were used to measure luciferase and β-galactosidase activities. Luciferase activity was normalized by the activity of β-galactosidase. For overexpression of the N-terminal matured form of SREBP-1c, pCMV-SREBP-1c(1-436) was co-transfected with pSRE-Luc and pAc-β-gal.
# Standard SREBP activation assays were performed on the exemplary compounds identified in Table 4 as per the method for Fatostatin A in Example 1. The ability of endogenous SREBPs to activate transcription of an SREBP-responsive reporter gene was measured in the presence or absence of compounds 45-55 and 19 (FIG. 28), compounds 56-61 and 19 (FIG. 29) and compounds 62-66 (FIG. 30) at 5 μM in CHOK1 cells. […] The inhibitory concentrations of compounds 53 (FIG. 31) and compounds 58 and 61 (FIG. 32) were determined.
compound,measurement,setting,value
"CCCc1cc(-c2nc(-c3ccc(NC(C)C)cc3)cs2)ccn1 [Compound 17, N-isopropyl-4-(2-(2-propylpyridin-4-yl)thiazol-4-yl)benzenamine]",Luc/Gal,[1],4.7079
same,Inhibition of adipogenesis,[2],+
same,inhibition under 5% FF FBS relative to 5% FBS,[3]; 3 μM,about 2.5 times
same,inhibition of cell growth,"[3]; 5, 10 and 20 μM, both growth conditions",85-100%
"CS(=O)(=O)Nc1ccc(-c2csc([C@H]3CCCN3C(=O)OCc3ccccc3)n2)cc1 [Compound 53, benzyl (R)-2-(4-(4-(methylsulfonamido)phenyl)thiazol-2-yl)pyrrolidine-1-carboxylate]",inhibition at 5 µM,[4],~30%
"Cc1ccc(S(=O)(=O)Nc2ccc(C(=O)N3CCN(c4cc(Cl)ccc4C)CC3)cc2)cc1 [Compound 58, (4-(5-chloro-2-methylphenyl)piperazin-1-yl)(4-(tosylamino)phenyl)methanone]",inhibition at 5 µM,[4],~42%
"Cc1ccc(-c2csc(/C(C#N)=C\Cc3ccc(S(=O)(=O)Nc4nccs4)cc3)n2)c(C)c1 [Compound 61, (Z)-4-(3-cyano-3-(4-(2,4-dimethylphenyl)thiazol-2-yl)allyl)-N-(thiazol-2-yl)benzenesulfonamide]",inhibition at 5 µM,[4],~25%
